# Results reported in ChEMBL document CHEMBL3430320, “Prediction of Thorough QT study results using action potential simulations based on ion channel screens” (J Pharmacol Toxicol Methods, 2014).
# Columns and labels:
# [1] = target: T1, Voltage-gated potassium channel, IKs; KCNQ1(Kv7.1)/KCNE1(MinK) (Homo sapiens, UniProt P51787+P15382); experiment: (§1) Inhibition of slow delayed inward rectifying potassium current (Iks) in Chinese Hamster Ovary (CHO) cells expressing hKvLQT1/hminK measured using IonWorks Quattro automated patch clamp platform; format: functional, cell-based, Cricetulus griseus
# [2] = target: T1, Voltage-gated potassium channel, IKs; KCNQ1(Kv7.1)/KCNE1(MinK); experiment: Inhibition of slow delayed inward rectifying potassium current (Iks) in Chinese Hamster Ovary (CHO) cells transfected with KCNQ1 / […] / KvLQT1 and KCNE1/minK measured using IonWorks automated patch clamp platform; format: functional, cell-based, Cricetulus griseus
# [3] = target: T2, Voltage-gated inwardly rectifying potassium channel KCNH2 (Homo sapiens, UniProt Q12809); experiment: Inhibition of rapid delayed inward rectifying potassium current (IKr) in Chinese hamster ovary (CHO) K1 cells stably expressing hERG measured using IonWorks Quattro automated patch clamp platform; format: functional, cell-based, Cricetulus griseus
# [4] = target: T2, Voltage-gated inwardly rectifying potassium channel KCNH2; experiment: Inhibition of rapid delayed inward rectifying potassium current (IKr) in Chinese hamster ovary (CHO) cells stable expressing hERG measured using IonWorks Barracuda automated patch clamp platform; format: functional, cell-based, Cricetulus griseus
# [5] = target: T3, Voltage-dependent L-type calcium channel subunit alpha-1C (Homo sapiens, UniProt Q13936); experiment: Inhibition of long-lasting type calcium current (ICaL) in HEK293 cells (alpha1C/beta2a/alpha2delta1) cells measured using IonWorks Barracuda automated patch clamp platform; format: functional, cell-based
# [6] = target: T4, A-type voltage-gated potassium channel KCND3 (Homo sapiens, UniProt Q9UK17); experiment: Inhibition of transient outward potassium current (Ito) current in Chinese Hamster Ovary (CHO) K1 cells expressing human Kv4.3 measured using IonWorks Quattro automated patch clamp platform; format: functional, cell-based, Cricetulus griseus
# T4 sequence (Q9UK17 whole entry): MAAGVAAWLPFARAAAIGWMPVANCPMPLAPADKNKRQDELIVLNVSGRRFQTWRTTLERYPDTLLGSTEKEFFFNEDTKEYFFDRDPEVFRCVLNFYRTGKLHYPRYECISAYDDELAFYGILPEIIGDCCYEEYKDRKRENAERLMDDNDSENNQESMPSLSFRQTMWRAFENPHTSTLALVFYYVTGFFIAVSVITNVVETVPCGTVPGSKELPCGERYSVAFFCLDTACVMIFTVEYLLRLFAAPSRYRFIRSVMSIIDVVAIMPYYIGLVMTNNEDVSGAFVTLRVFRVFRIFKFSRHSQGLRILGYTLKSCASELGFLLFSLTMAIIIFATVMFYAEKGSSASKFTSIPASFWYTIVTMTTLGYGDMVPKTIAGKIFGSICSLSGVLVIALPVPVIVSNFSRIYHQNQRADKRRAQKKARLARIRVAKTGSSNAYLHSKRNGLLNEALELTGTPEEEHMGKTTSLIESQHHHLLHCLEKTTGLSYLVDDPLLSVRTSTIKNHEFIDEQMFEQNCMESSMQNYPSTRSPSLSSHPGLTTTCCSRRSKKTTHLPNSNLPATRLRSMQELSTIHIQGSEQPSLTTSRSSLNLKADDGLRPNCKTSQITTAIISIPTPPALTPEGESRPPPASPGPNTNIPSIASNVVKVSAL
# [7] = target: Sodium channel protein type 5 subunit alpha (Homo sapiens, UniProt Q14524); experiment: Inhibition of fast sodium current (INa) in HEK293 cells transfected with human Nav1.5 measured using IonWorks Quattro automated patch clamp platform; format: functional, cell-based
# [8] = target: T2, Voltage-gated inwardly rectifying potassium channel KCNH2
# [9] = target: T3, Voltage-dependent L-type calcium channel subunit alpha-1C; experiment: Inhibition of long-lasting type calcium current (hICa) in Chinese Hamster Ovary (CHO) cells expressing hCav1.2 measured using IonWorks Quattro automated patch clamp platform; format: functional, cell-based, Cricetulus griseus
# [10] = target: T2, Voltage-gated inwardly rectifying potassium channel KCNH2; experiment: Inhibition of rapid delayed inward rectifying potassium current (IKr) measured using manual patch clamp assay; format: functional
# [11] = target: Voltage-gated potassium channel, IKs; KCNQ1(Kv7.1)/KCNE1(MinK) (Homo sapiens, UniProt P15382+P51787); experiment: as §1; format: functional, cell-based, Cricetulus griseus
# Voltage-gated potassium channel, IKs; KCNQ1(Kv7.1)/KCNE1(MinK) (Homo sapiens, UniProt P15382+P51787), sequence (P51787 whole entry): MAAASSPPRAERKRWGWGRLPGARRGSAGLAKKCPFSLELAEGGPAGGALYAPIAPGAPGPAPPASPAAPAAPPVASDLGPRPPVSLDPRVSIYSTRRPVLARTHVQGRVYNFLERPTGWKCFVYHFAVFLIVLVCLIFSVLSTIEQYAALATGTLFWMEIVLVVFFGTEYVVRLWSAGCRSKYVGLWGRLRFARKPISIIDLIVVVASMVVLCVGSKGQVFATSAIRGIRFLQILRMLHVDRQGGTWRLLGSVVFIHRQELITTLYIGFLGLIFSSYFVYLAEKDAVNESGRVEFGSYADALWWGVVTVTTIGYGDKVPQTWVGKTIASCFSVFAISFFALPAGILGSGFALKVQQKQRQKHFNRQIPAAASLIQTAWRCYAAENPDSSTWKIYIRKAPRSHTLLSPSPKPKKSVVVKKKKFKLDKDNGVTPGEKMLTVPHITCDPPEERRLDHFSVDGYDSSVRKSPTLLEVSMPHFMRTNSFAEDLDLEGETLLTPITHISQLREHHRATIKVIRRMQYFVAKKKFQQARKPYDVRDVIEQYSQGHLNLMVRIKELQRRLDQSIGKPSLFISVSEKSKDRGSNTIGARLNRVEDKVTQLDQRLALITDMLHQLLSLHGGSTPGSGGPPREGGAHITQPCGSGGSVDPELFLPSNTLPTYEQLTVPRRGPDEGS
# T1 sequence (P51787 whole entry): as the sequence (P51787 whole entry) above
# T2 sequence (Q12809 whole entry): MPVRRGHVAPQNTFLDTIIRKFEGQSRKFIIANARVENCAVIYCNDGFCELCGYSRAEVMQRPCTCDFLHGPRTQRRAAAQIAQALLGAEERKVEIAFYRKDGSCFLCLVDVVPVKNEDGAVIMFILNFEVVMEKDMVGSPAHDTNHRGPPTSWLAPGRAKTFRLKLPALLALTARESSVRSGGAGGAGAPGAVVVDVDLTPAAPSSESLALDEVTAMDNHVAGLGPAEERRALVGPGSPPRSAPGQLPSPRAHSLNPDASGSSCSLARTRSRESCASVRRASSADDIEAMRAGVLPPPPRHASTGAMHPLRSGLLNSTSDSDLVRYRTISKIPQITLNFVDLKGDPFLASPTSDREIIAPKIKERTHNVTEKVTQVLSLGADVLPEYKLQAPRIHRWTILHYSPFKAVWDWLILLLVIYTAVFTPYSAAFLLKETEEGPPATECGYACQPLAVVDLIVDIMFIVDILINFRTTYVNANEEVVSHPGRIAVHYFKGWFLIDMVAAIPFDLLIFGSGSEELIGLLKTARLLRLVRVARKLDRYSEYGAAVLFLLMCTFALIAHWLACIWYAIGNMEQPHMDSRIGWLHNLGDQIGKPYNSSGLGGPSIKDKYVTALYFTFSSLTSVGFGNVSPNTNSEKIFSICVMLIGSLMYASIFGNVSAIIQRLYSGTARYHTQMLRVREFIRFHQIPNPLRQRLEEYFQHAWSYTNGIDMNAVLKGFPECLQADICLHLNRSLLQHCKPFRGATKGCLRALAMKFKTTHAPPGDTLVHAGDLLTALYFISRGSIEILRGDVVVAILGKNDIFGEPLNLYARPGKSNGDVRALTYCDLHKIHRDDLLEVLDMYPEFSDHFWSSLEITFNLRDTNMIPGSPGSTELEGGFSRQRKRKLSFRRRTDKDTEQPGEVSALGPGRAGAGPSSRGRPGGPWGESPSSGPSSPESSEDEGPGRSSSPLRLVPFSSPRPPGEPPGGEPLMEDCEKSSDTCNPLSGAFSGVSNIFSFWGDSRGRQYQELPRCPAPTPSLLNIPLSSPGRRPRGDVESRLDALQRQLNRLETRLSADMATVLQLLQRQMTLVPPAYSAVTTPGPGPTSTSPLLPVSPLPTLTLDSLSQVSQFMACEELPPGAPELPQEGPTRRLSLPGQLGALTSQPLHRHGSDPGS
# T3 sequence (Q13936 whole entry): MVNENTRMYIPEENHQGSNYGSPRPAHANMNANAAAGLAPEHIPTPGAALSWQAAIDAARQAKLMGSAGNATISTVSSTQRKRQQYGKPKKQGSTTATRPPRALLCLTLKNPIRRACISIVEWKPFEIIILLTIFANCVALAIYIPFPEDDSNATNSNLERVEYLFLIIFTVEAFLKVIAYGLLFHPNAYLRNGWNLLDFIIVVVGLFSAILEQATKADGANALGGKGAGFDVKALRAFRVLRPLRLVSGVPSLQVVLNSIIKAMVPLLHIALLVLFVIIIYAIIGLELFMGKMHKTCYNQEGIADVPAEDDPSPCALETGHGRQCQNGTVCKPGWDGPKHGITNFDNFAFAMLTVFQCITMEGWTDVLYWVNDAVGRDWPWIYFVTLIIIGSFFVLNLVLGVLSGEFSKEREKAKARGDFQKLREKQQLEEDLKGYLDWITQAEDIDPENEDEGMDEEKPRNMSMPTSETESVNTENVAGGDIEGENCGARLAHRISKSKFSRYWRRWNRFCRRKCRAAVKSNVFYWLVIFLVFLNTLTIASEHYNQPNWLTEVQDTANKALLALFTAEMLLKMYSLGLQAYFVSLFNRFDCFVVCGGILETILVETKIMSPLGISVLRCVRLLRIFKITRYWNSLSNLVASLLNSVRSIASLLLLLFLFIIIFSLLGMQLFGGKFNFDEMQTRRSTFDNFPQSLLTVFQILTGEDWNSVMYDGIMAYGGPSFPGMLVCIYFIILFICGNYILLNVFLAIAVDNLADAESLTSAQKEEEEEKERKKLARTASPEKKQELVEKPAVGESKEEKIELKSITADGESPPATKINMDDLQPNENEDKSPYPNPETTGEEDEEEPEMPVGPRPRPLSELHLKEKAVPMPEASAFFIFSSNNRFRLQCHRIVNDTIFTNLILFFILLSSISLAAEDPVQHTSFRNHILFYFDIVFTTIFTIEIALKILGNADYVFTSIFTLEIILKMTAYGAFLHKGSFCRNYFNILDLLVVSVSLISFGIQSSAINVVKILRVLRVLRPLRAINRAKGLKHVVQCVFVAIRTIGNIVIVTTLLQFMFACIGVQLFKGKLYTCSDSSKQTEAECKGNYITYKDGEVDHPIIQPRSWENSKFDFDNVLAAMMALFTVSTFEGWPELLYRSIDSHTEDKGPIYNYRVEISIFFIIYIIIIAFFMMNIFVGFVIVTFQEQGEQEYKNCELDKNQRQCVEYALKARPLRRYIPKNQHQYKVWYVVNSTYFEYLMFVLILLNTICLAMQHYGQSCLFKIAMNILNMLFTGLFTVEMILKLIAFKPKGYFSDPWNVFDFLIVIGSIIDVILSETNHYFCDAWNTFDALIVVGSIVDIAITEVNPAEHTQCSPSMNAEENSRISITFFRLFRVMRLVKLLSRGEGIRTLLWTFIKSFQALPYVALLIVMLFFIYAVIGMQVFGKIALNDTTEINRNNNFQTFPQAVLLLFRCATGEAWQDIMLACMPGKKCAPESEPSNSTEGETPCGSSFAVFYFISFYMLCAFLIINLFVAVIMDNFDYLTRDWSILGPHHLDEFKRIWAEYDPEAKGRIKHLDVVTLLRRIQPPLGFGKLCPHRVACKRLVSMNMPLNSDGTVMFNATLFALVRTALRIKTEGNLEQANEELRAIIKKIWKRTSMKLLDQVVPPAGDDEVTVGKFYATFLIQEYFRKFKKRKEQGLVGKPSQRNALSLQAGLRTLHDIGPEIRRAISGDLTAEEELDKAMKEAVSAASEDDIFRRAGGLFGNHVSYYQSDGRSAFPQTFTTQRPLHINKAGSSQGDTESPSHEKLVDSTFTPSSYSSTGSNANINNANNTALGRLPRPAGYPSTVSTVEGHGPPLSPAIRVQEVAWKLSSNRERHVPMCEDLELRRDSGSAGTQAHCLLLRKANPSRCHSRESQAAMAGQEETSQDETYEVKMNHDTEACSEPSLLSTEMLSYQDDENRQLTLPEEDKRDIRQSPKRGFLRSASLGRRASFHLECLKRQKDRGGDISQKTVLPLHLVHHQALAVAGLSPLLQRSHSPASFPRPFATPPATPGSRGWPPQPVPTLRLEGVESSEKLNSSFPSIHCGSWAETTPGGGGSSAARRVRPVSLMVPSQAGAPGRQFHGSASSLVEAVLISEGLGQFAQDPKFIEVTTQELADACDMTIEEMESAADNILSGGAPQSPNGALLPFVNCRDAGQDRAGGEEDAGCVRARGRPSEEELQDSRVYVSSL
SMILES,pIC50 [2],pIC50 [5],pIC50 [9],also measured
O=C(O)c1ccc(-n2nc(-c3ccccc3O)nc2-c2ccccc2O)cc1 [DEFERASIROX],Inactive,Inactive,–,pIC50 [1]: Inactive; pIC50 [3]: Inactive; pIC50 [4]: Inactive
CS(=O)(=O)CCNCc1ccc(-c2ccc3ncnc(Nc4ccc(OCc5cccc(F)c5)c(Cl)c4)c3c2)o1 [LAPATINIB],Inactive,–,–,pIC50 [6]: Inactive; pIC50 [7]: Inactive
C[C@H](Cc1cc2c(c(C(N)=O)c1)N(CCCO)CC2)NCCOc1ccccc1OCC(F)(F)F [SILODOSIN],–,–,–,IC50 [8]: 7.94 µM
Cc1nc(Nc2ncc(C(=O)Nc3c(C)cccc3Cl)s2)cc(N2CCN(CCO)CC2)n1.O [DASATINIB],Inactive,–,–,–
Cc1cc(C#N)cc(C)c1Oc1nc(Nc2ccc(C#N)cc2)nc(N)c1Br [ETRAVIRINE],Inactive,Inactive,Inactive,–
O=C1c2cccc3c2[C@H](CCC3)CN1[C@@H]1CN2CCC1CC2 [PALONOSETRON],–,–,–,IC50 [10]: 2 µM; pIC50 [6]: Inactive
C[C@H]1CN(C[C@H](Cc2ccccc2)C(=O)NCC(=O)O)CC[C@@]1(C)c1cccc(O)c1 [ALVIMOPAN],–,–,–,pIC50 [6]: Inactive
Nc1nnc(-c2cccc(Cl)c2Cl)c(N)n1 [LAMOTRIGINE],Inactive,–,–,pIC50 [6]: Inactive
Cc1ccc(O)c([C@H](CCN(C(C)C)C(C)C)c2ccccc2)c1 [TOLTERODINE],–,–,–,IC50 [11]: 79.4 µM
Cc1cn(-c2cc(NC(=O)c3ccc(C)c(Nc4nccc(-c5cccnc5)n4)c3)cc(C(F)(F)F)c2)cn1 [NILOTINIB],Inactive,–,–,–
OC(CNCC(O)C1CCc2cc(F)ccc2O1)C1CCc2cc(F)ccc2O1 (stereo unspecified) [NEBIVOLOL],–,–,Inactive,IC50 [10]: 0.316 µM
C[C@@H](O)[C@H]1C(=O)N2C(C(=O)O)=C(S[C@@H]3CN[C@H](CNS(N)(=O)=O)C3)[C@H](C)[C@H]12 [DORIPENEM],–,–,–,pIC50 [6]: Inactive
CN(C)CC(c1ccc(O)cc1)C1(O)CCCCC1 (stereo unspecified) [DESVENLAFAXINE],Inactive,Inactive,Inactive,pIC50 [1]: Inactive; pIC50 [3]: 1.7; pIC50 [4]: Inactive
Cc1cn([C@@H]2C[C@@H](O)[C@H](CO)O2)c(=O)[nH]c1=O [TELBIVUDINE],–,–,Inactive,pIC50 [3]: 2.3; pIC50 [6]: Inactive
COC(c1ccccc1)(c1ccccc1)[C@H](Oc1nc(C)cc(C)n1)C(=O)O [AMBRISENTAN],–,Inactive,–,pIC50 [3]: 2.1; pIC50 [4]: Inactive

# More lines, main results first:
pIC50 [2],pIC50 [5],SMILES,pIC50 [9],also measured
Inactive,Inactive,COc1cc2nc(N(C)CCCNC(=O)C3CCCO3)nc(N)c2cc1OC (stereo unspecified) [ALFUZOSIN],–,–
Inactive,Inactive,CO[C@H]1C[C@@H]2CC[C@@H](C)[C@@](O)(O2)C(=O)C(=O)N2CCCC[C@H]2C(=O)O[C@H]([C@H](C)C[C@@H]2CC[C@@H](OCCO)[C@H](OC)C2)CC(=O)[C@H](C)/C=C(\C)[C@@H](O)[C@@H](OC)C(=O)[C@H](C)C[C@H](C)/C=C/C=C/C=C/1C [EVEROLIMUS],Inactive,–
Inactive,Inactive,N[C@@H](CC(=O)N1CCn2c(nnc2C(F)(F)F)C1)Cc1cc(F)c(F)cc1F [SITAGLIPTIN],–,–
Inactive,Inactive,Cc1c(O)cccc1C(=O)N[C@@H](CSc1ccccc1)[C@H](O)CN1C[C@H]2CCCC[C@H]2C[C@H]1C(=O)NC(C)(C)C,Inactive,–
Inactive,Inactive,CC1=NN(c2ccc(C)c(C)c2)C(=O)/C1=N\Nc1cccc(-c2cccc(C(=O)O)c2)c1O [ELTROMBOPAG],Inactive,pIC50 [1]: Inactive; pIC50 [3]: Inactive
Inactive,–,CCCc1nc(C)c2c(=O)[nH]c(-c3cc(S(=O)(=O)N4CCN(CC)CC4)ccc3OCC)nn12,–,–
